Columns and labels:
CHF rats = assay: Echocardiography in volume overload-induced CHF rats (AVF); type: in vivo, rat; settings: 7.5 mg/kg/day orally, 21 days from 7 days prior to surgery; for Reduction in fractional shortening: day 21 (14 days post-surgery)
Description: (§1) (v) Animals. Studies were conducted on male Sprague Dawley rats (Harlan Laboratories Ltd., Jerusalem, Israel), weighing ˜300 g. The animals were kept in a temperature-controlled room and maintained on standard rat diet (0.5% NaCl). All experiments were performed according to the guidelines of the Technion Committee for Supervision of Animal Experiments (Haifa, Israel). […] Sham-operated rats served as controls. Drugs (or saline as control) were orally administered, starting 7 days prior to surgery (day 0) and were continued for 21 days. Surgery was performed on day 7 and animals sacrified 14 days post-surgery (day 21). Cardiac function was determined by echocardiography on days 0, 10 (3 days post-surgery) and 21 (before sacrifice). After the last echocardiography measurement, rats were sacrified and hearts were analyzed.
Rats were treated as described in Materials and Methods hereinabove and volume overload was induced by surgical creation of an aortocaval fistula (AVF). Drugs (7.5 mg/kg/day) were administered according to the protocol described above, starting 7 days prior to surgery (day 0) and during 21 days. Cardiac function was determined by echocardiography, from which two principle parameters, namely, diastolic area and systolic area, were calculated. These parameters were used for calculating the fractional shortening, which is an established measure of the ventricular contraction capacity, according to the equation: Fractional shortening =(diastolic area-systolic area)/diastolic area.

[1] = tested on: Bax, Bcl-2, PKC-ε in hearts of naïve rats; assay: Anti-apoptotic and pro-apoptotic proteins in hearts of naive rats; type: in vivo, rat; settings: 5 mg/kg/day orally for 21 days
Description: In this experiment we tested the effects of propargylamine and S(−)—N-propargyl-1-aminoindan on several key anti-apoptotic and pro-apoptotic proteins in hearts of naïve rats.
The drugs (5 mg/kg/day) were orally administered to rats for 21 days (n=4-6 rats in each group), and measurements were made after sacrifice. […] Furthermore, both propargylamine and S(−)—N-propargyl-1-aminoindan increased the expression of the key anti-apoptotic PKC-ε (FIGS. 9D-9E, respectively).

H9c2 cells [2] = assay: Serum starvation-induced apoptosis in H9c2 cells, MTT staining assay; type: cell-based, rat; settings: 0.1-10 μM; 0% FCS for 24 hours
Description: (§2) (b) Serum starvation—To induce apoptosis, H9c2 cultures were incubated in the culture medium containing 0% FCS for the indicated times.

naïve rats = assay: Cardiovascular hemodynamic parameters in naive rats after IV bolus; type: in vivo, rat
Description: As the first step in testing the beneficial in vivo efficacy of the propargylamine derivatives on the cardiac function, we measured key cardiovascular hemodynamic parameters in control naïve rats, and in rats administered IV with a bolus of 1 mg/kg S(−)—N-propargyl-1-aminoindan, followed with a bolus of 10 mg/kg S(−)—N-propargyl-1-aminoindan (Sprague Dawley rats were used, n=3 rats in each group). Measurements were made at baseline, 30 minutes after each drug administration, and 1 hour (recovery) after drug administration.

H9c2 cells [3] = assay: Fas-mediated (rFasL) apoptosis in H9c2 cells, DAPI staining; type: cell-based, rat; settings: added 16 hours before and present throughout
Description: (§3) (ii) Cell Line H9c2. Experiments were performed on the embryonic rat heart cell line H9c2. H9c2 cells were cultured in DMEM (Biological Industries, Beit-Haemek, Israel) supplemented with 10% fetal calf serum (FCS), 50 units/ml penicillin G, 50 μg/ml streptomycin sulfate, 2 mg/ml L-glutamine and sodium pyruvate. H9c2 cells were harvested by trypsinization, washed with PBS, diluted to a concentration of 5×10^4 cells/ml with DMEM (high glucose) and cultured at 0.5 ml/well on sterile glass cover slips in 24-well plates.
(c) Activation of the Fas receptor—Fas activation was induced by incubating the cultures with recombinant human Fas Ligand (rFasL; 10 ng/ml) plus the enhancing antibody (1 μg/ml) for the indicated times, according to the manufacturer's recommendations (Alexis Biochemicals, San Diego, Calif.).
(§4) (iv) Determination of Apoptosis by DAPI. Cultures were counterstained with 4′, 6-diamidino-2-phenylindole (DAPI) to visualize the nuclear morphology.
Cultures of embryonic rat heart cell line H9c2 were incubated with rFasL (10 ng/ml) and an enhancing antibody for periods of time of 9, 10 and 24 hours, and apoptosis measured thereafter.
In order to determine whether rasagiline can prevent Fas-mediated apoptosis, the Fas receptor was activated for 9, 10 and 24 hours as described above. Rasagiline (10 μM) was introduced to the culture medium 16 hours before, and was present throughout the apoptosis-inducing protocol (n=3 wells).
Each one of the drugs, at a concentration of either 0.1 or 1.0 μM was introduced to the culture medium 16 hours before, and was presented throughout the apoptosis-inducing protocol (n=3 wells).

[4] = tested on: neonatal rat ventricular myocytes; assay: Fas-mediated hypertrophy in cultured neonatal rat ventricular myocytes (ANP mRNA, RT-PCR); type: cell-based; settings: rFasL 24 hours; for ANP mRNA elevation induced by Fas activation: 10 μM, 3 experiments per drug
Description: In order to test whether rasagiline can prevent the marked hypertrophy induced in cultured neonatal rat ventricular myocytes (for methods, see Yaniv et al., 2002), Fas was activated for 24 hours by incubation with rFasL (10 ng/ml plus 1 μg/ml of the enhancer antibody). Hypertrophy was assessed by determining the mRNA levels (by means of RT-PCR) of the atrial natriuretic peptide (ANP), which is a most common molecular marker of hypertrophy. Rasagiline ([…]) was added to the culture 1 hour before Fas activation and remained in the medium throughout the 24 hours exposure to rFasL.
In order to test whether S(−)—N-propargyl-1-aminoindan and propargylamine have the same effect on marked hypertrophy induced in cultured neonatal rat ventricular myocytes, similar experiments were performed using either propargylamin or S(−)—N-propargyl-1-aminoindan (both at a concentration of 10 μM) instead of rasagiline.

[5] = tested on: neonatal rat ventricular myocytes; assay: Doxorubicin-induced apoptosis in neonatal rat ventricular myocytes (caspase-3 cleavage); type: cell-based; settings: 1 or 10 μM, added 24 hours before; 1 μM doxorubicin 24 hours
Description: In order to test whether propargylamine or S(−)—N-propargyl-1-aminoindan can prevent doxorubicin-induced apoptosis in cultured neonatal rat ventricular myocytes, these drugs (at a concentration of either 1 or 10 μM) were introduced to the culture medium 24 hours before the incubation (24 hours) with 1 μM doxorubicin.

[6] = tested on: caspase-3 and cytochrome C in CHF rats; assay: Caspase-3 and cytosolic cytochrome C in volume overload-induced CHF rats (AVF); type: in vivo, rat
Description: as §1
Rats were treated as described in Materials and Methods hereinabove and volume overload was induced by surgical creation of an aortocaval fistula (AVF). Sham-operated rats served as controls. 14 days after induction of volume-overload, caspase-3 cleavage and cytosolic cytochrome C, both pro-apoptotic proteins, were analyzed.
In the following experiment we tested whether propargylamine or S(−)—N-propargyl-1-aminoindan can reduce CHF-induced increase in caspase-3 and cytochrome C. Rats were treated and drugs were administered (1 or 7.5 mg/kg/day S(−)—N-propargyl-1-aminoindan, or 5 mg/kg/day propargylamine) as described in Materials and Methods hereinabove.

[7] = tested on: neonatal rat ventricular myocytes; assay: Serum starvation-induced apoptosis in neonatal rat ventricular myocytes (caspase-3 cleavage, Bcl-2); type: cell-based; settings: 0.1 μM, added 1 hour before; 0% FCS, 24 hours
Description: Caspase-3 is a protein of the cysteine-aspartic acid protease (caspase) family, known as a key pro-apoptotic protein and therefore as a common marker of apoptosis.
In order to test whether propargylamine can prevent serum starvation-induced apoptosis in cultured neonatal rat ventricular myocytes, we repeated the serum starvation protocol and 0.1 μM propargylamine was introduced to the culture medium 1 hour before serum starvation. As shown in FIGS. 6B-6C, propargylamine attenuated serum starvation-induced apoptosis in neonatal rat ventricular myocytes as indicated both by the drug-induced decrease in caspase 3 cleavage (FIG. 6B) and increase in the expression of mitochondrial Bcl-2, known as an anti-apoptotic protein (FIG. 6C).

H9c2 cells [8] = assay: Serum starvation-induced apoptosis in H9c2 cells, DAPI staining; type: cell-based, rat
Description: as §3, §2, §4
The next apoptosis-inducing stimulus tested was serum starvation ([…], 0% serum in the culture medium). To induce apoptosis, H9c2 cells were incubated in the culture medium containing 0% FCS for 6, 7, 8 or 9 hours. Rasagiline (10 μM) was introduced to the culture medium 2 hours before inducing serum starvation and was present throughout the apoptosis-inducing protocol (n=3 wells).
In another experiment, we repeated the serum starvation protocol, and also tested in the same cultures whether rasagiline can protect against H2O2-induced apoptosis. Rasagiline was introduced to the culture medium 2 hours before inducing serum starvation or adding H2O2, and was present throughout the apoptosis-inducing protocol (n=4 experiments; ˜2000 cells counted).

[9] = 10 mg/kg IV bolus, 30 minutes after administration
[10] = 0.1 or 1.0 μM, ~10 hours incubation with rFasL (~10% apoptosis)

For `C#CCN[C@H]1CCc2ccccc21` [S(−)—N-propargyl-1-aminoindan], the “Reduction in fractional shortening” value (CHF rats) was “completely prevented”, the “Hypertrophic increase in the diastolic area” value (CHF rats; days 10 and 21) was “completely prevented” and the “Hypertrophic increase in the systolic area” value (CHF rats; days 10 and 21) was “completely prevented”. For the same compound, the “Expression of anti-apoptotic PKC-ε” value [1] was “increased”, the “Anti-apoptotic effect, serum starvation, MTT staining” value (H9c2 cells [2]) was “anti-apoptotic effect” and the Cardiac index (naïve rats; [9]) was “markedly increased”. The Cardiac output (naïve rats; [9]) was “markedly increased”, the Heart rate (naïve rats; [9]) was “did not affect” and the “Mean arterial pressure (MAP)” value (naïve rats; [9]) was “did not affect”. For the same compound, the “Reversibility of the effect on cardiac function” value (naïve rats; washout period (recovery, 1 hour after administration)) was “reversible”, the Fas-mediated apoptosis (H9c2 cells [3]; [10]) was “completely prevented” and the “ANP mRNA elevation induced by Fas activation” value [4] was “completely blocked”. For the same compound, the “Doxorubicin-induced apoptosis (caspase-3 cleavage)” value [5] was “significantly attenuated”, the “CHF-induced increase in cytochrome C” value ([6]; 1 mg/kg/day orally for 21 days (FIG. 11B)) was “significantly reduced” and the “CHF-induced increase in caspase-3” value ([6]; 7.5 mg/kg/day orally for 21 days (FIG. 11A)) was “significantly reduced”.

For `C#CCN` [propargylamine], the “Caspase 3 cleavage, serum starvation” value [7] was “decrease”, the “Expression of mitochondrial Bcl-2, serum starvation” value [7] was “increase” and the “Hypertrophic increase in the diastolic area” value (CHF rats; 14 days post-surgery) was “completely prevented”. The “Hypertrophic increase in the systolic area” value (CHF rats; 14 days post-surgery) was “completely prevented”, the “Reduction in fractional shortening” value (CHF rats) was “completely prevented” and the “Expression of anti-apoptotic PKC-ε” value [1] was “increased”. For the same compound, the “Expression of mitochondrial anti-apoptotic protein Bcl-2” value [1] was “markedly increased”, the “Expression of mitochondrial pro-apoptotic protein Bax” value [1] was “did not affect” and the “Ratio Bcl-2/Bax” value [1] was “marked increase”. The Fas-mediated apoptosis (H9c2 cells [3]; [10]) was “completely prevented”, the “ANP mRNA elevation induced by Fas activation” value [4] was “completely blocked” and the “Doxorubicin-induced apoptosis (caspase-3 cleavage)” value [5] was “significantly attenuated”. The “CHF-induced increase in caspase-3” value ([6]; 5 mg/kg/day orally for 21 days) was “significantly reduced” and the “CHF-induced increase in cytochrome C” value ([6]; 5 mg/kg/day orally for 21 days (FIG. 11B)) was “significantly reduced”.

For `C#CCN[C@@H]1CCc2ccccc21` [rasagiline, R(+)—N-propargyl-1-aminoindan], the Serum starvation-induced apoptosis (H9c2 cells [8]; 10 μM, added 2 hours before, 9 hrs serum starvation (12% apoptosis)) was “completely prevented”, the “Anti-apoptotic effect, serum starvation” value (H9c2 cells [8]; 0.1-10 μM, added 2 hours before, 0% FCS for 24 hours) was “anti-apoptotic effect” and the “Apoptosis induced by serum starvation” value (H9c2 cells [8]; Example 3, added 2 hours before, n=4 experiments) was “prevented”. The Fas-mediated apoptosis (H9c2 cells [3]; 10 μM, 10 hours incubation with rFasL (~20% apoptosis)) was “completely prevented” and the “Fas-mediated hypertrophy (ANP mRNA)” value ([4]; 10 μM/ml, added 1 hour before, preliminary, data not shown) was “prevented Fas-mediated hypertrophy”.

Source: patent publication US8097608B2, “Methods for treatment of cardiovascular disorders and diseases” (Technion Research and Development Foundation Ltd., priority 2003, dated 2012)
